Measured values as given in ChEMBL document CHEMBL4152348, “Discovery of a Potent and Orally Bioavailable Cyclophilin Inhibitor Derived from the Sanglifehrin Macrocycle” (J Med Chem, 2018).

How the values were obtained:
[1] = Lipophilicity, log D of the compound at pH 7.4 after 30 mins by HPLC/UV analysis; assay type: physicochemical; conditions: buffer
[2] = Half life in rat plasma at 2 uM up to 4 hrs by LC/MS/MS analysis; assay type: ADME, cell-free
[3] = Half life in dog plasma at 2 uM up to 4 hrs by LC/MS/MS analysis; assay type: ADME, cell-free, Canis lupus familiaris
[4] = Apparent permeability across apical to basolateral side in human Caco2 cells measured at 60 to 120 mins by LC/MS/MS analysis; assay type: ADME, cell-based; conditions: for Papp A→B: Caco-2, read-out: permeability; for permeability: Caco-2
[5] = Oral bioavailability in Beagle dog at 5 mg/kg by HPLC/MS analysis; assay type: ADME, organism-based, Canis lupus familiaris; conditions: in vivo
[6] = Half life in human plasma at 2 uM up to 4 hrs by LC/MS/MS analysis; assay type: ADME, cell-free
[7] = Apparent permeability across basolateral to apical side in human Caco2 cells measured at 60 to 120 mins by LC/MS/MS analysis; assay type: ADME, cell-based; conditions: for Papp B→A: Caco-2, read-out: permeability; for permeability: Caco-2
[8] = Terminal half life in Beagle dog at 1 mg/kg, iv or 5 mg/kg, po by HPLC/MS analysis; assay type: ADME, organism-based, Canis lupus familiaris; conditions: in vivo, read-out: beta t1/2 (converted)
[9] = Clearance in Beagle dog at 1 mg/kg, iv or 5 mg/kg, po by HPLC/MS analysis; assay type: ADME, organism-based, Canis lupus familiaris; conditions: in vivo
[10] = Clearance in Sprague-Dawley rat at 1 mg/kg, iv or 5 mg/kg, po by HPLC/MS analysis; assay type: ADME, organism-based; conditions: in vivo
[11] = Terminal half life in Sprague-Dawley rat at 1 mg/kg, iv or 5 mg/kg, po by HPLC/MS analysis; assay type: ADME, organism-based; conditions: in vivo, read-out: beta t1/2 (converted)
[12] = Oral bioavailability in Sprague-Dawley rat at 5 mg/kg by HPLC/MS analysis; assay type: ADME, organism-based; conditions: in vivo
[13] = Volume of distribution at steady state in Sprague-Dawley rat at 1 mg/kg, iv or 5 mg/kg, po by HPLC/MS analysis; assay type: ADME, organism-based; conditions: in vivo, read-out: Vdss
[14] = Volume of distribution at steady state in Beagle dog at 1 mg/kg, iv or 5 mg/kg, po by HPLC/MS analysis; assay type: ADME, organism-based, Canis lupus familiaris; conditions: in vivo, read-out: Vdss
[15] = Oral bioavailability in Sprague-Dawley rat at 10 mg/kg by HPLC/MS analysis; assay type: ADME, organism-based; conditions: in vivo
[16] = Volume of distribution at steady state in Sprague-Dawley rat at 10 mg/kg, iv or 10 mg/kg, po by HPLC/MS analysis; assay type: ADME, organism-based; conditions: in vivo, read-out: Vdss
[17] = Clearance in Sprague-Dawley rat at 10 mg/kg, iv or 10 mg/kg, po by HPLC/MS analysis; assay type: ADME, organism-based; conditions: in vivo
[18] = Terminal half life in Sprague-Dawley rat at 10 mg/kg, iv or 10 mg/kg, po by HPLC/MS analysis; assay type: ADME, organism-based; conditions: in vivo, read-out: beta t1/2 (converted)
[19] = Aqueous solubility of the compound at pH 7.2; assay type: physicochemical

| SMILES | logD at 0.5 h [1] | half-life at 2 µM [2] | half-life at 2 µM [3] | Papp A→B [4] | half-life at 2 µM [6] | Papp B→A [7] | further results |
| --- | --- | --- | --- | --- | --- | --- | --- |
| CC(C)[C@@H]1NC(=O)C/C=C/c2cc3cc(ccc3cn2)[C@@H](C)OC(=O)[C@@H]2CCCN(N2)C(=O)[C@H](C)NC1=O | 1.1 | 0.133 h | 6.95 h | 0.32 ×10⁻⁶ cm/s | 9.32 h | 13 ×10⁻⁶ cm/s | bioavailability [5]: 8% |
| CC(C)[C@@H]1OC(=O)C(CO)(CO)/C=C/c2ccc3ccc(nc3c2)[C@@H](C)NC(=O)[C@@H]2CCCN(N2)C(=O)[C@H](C)NC1=O | 1 | – | – | 0.08 ×10⁻⁶ cm/s | – | 0.59 ×10⁻⁶ cm/s | – |
| CC(C)[C@@H]1OC(=O)C(C)(C)/C=C/c2ccc3ccc(nc3c2)[C@@H](C)NC(=O)[C@@H]2CCCN(N2)C(=O)[C@H](C)NC1=O | 3.2 | 6.87 h | > 25 h | – | > 25 h | – | half-life [8]: 10 h; clearance [9]: 6 mL/min/kg; clearance [10]: 10.8 mL/min/kg; half-life [11]: 3.9 h; permeability [4]: 17 ×10⁻⁶ cm/s; bioavailability [12]: 90%; bioavailability [5]: 100%; Vd [13]: 2.5 L/kg; permeability [7]: 47 ×10⁻⁶ cm/s; Vd [14]: 3.9 L/kg |
| CC(C)[C@@H]1OC(=O)C2(/C=C/c3ccc4ccc(nc4c3)[C@@H](C)NC(=O)[C@@H]3CCCN(N3)C(=O)[C@H](C)NC1=O)COCOC2 | 2.2 | > 25 h | > 25 h | 1.5 ×10⁻⁶ cm/s | > 25 h | 13 ×10⁻⁶ cm/s | half-life [8]: 25 h; clearance [9]: 1.33 mL/min/kg; bioavailability [15]: 100%; Vd [16]: 12 L/kg; clearance [17]: 7 mL/min/kg; bioavailability [5]: 55%; Vd [14]: 2.3 L/kg; half-life [18]: 24 h |
| CC(C)[C@@H]1OC(=O)C2(/C=C/c3ccc4ccc(nc4c3)[C@@H](C)NC(=O)[C@@H]3CCCN(N3)C(=O)[C@H](C)NC1=O)CCC(O)CC2 (stereo in doubt; 48) | – | – | – | – | – | – | permeability [4]: 0.9 ×10⁻⁶ cm/s; permeability [7]: 7.1 ×10⁻⁶ cm/s |
| CC(C)[C@@H]1NC(=O)C/C=C/c2ccc3ccc(nc3c2)[C@@H](C)OC(=O)[C@@H]2CCCN(N2)C(=O)[C@H](C)NC1=O | 2.1 | – | > 25 h | 1.2 ×10⁻⁶ cm/s | 8.87 h | 3.5 ×10⁻⁶ cm/s | – |
| CC(C)[C@@H]1NC(=O)CC/C=C/c2cc3cc(ccc3cn2)[C@@H](C)OC(=O)[C@@H]2CCCN(N2)C(=O)[C@H](C)NC1=O | 1.6 | 0.133 h | > 25 h | 0.33 ×10⁻⁶ cm/s | > 25 h | 25 ×10⁻⁶ cm/s | – |
| CC(C)[C@@H]1OC(=O)C(C)(C)/C=C/c2cc3cc(ccc3cn2)[C@@H](C)NC(=O)[C@@H]2CCCN(N2)C(=O)[C@H](C)NC1=O | 2 | 9.4 h | 12.2 h | 0.1 ×10⁻⁶ cm/s | > 25 h | 7.9 ×10⁻⁶ cm/s | – |
| CC(C)[C@@H]1OC(=O)C2(/C=C/c3ccc4ccc(nc4c3)[C@@H](C)NC(=O)[C@@H]3CCCN(N3)C(=O)[C@H](C)NC1=O)COCCOC2 | 2.1 | – | – | 0.72 ×10⁻⁶ cm/s | – | 10 ×10⁻⁶ cm/s | – |
| CC(C)[C@@H]1NC(=O)C(C)(C)/C=C/c2cc3cc(ccc3cn2)[C@@H](C)OC(=O)[C@@H]2CCCN(N2)C(=O)[C@H](C)NC1=O | 2.1 | – | > 25 h | 2.3 ×10⁻⁶ cm/s | > 25 h | 34 ×10⁻⁶ cm/s | solubility [19]: < 6 µg/mL |
| CC(C)[C@@H]1OC(=O)C2(/C=C/c3ccc4ccc(nc4c3)[C@@H](C)NC(=O)[C@@H]3CCCN(N3)C(=O)[C@H](C)NC1=O)CCS(=O)(=O)CC2 | 1.9 | – | – | 0.48 ×10⁻⁶ cm/s | – | 12 ×10⁻⁶ cm/s | – |
| CO[C@H]1C(=O)N[C@@H](C(C)C)C(=O)N[C@@H](C)C(=O)N2CCC[C@H](N2)C(=O)O[C@H](C)c2cccc(c2)/C=C/CC[C@H]1C | 2.9 | 0.0833 h | 10 h | 12 ×10⁻⁶ cm/s | > 25 h | 31 ×10⁻⁶ cm/s | – |
| CC(C)[C@@H]1NC(=O)C/C=C/c2ccc3ccc(cc3c2)[C@@H](C)OC(=O)[C@@H]2CCCN(N2)C(=O)[C@H](C)NC1=O | 2.5 | – | > 25 h | 6.2 ×10⁻⁶ cm/s | > 25 h | 38 ×10⁻⁶ cm/s | – |
| CC(C)[C@@H]1NC(=O)C(C)(C)/C=C/c2ccc3ccc(nc3c2)[C@@H](C)OC(=O)[C@@H]2CCCN(N2)C(=O)[C@H](C)NC1=O | 2.7 | 0.25 h | > 25 h | 2 ×10⁻⁶ cm/s | 17.1 h | 21 ×10⁻⁶ cm/s | solubility [19]: < 6 µg/mL |
| CC(C)[C@@H]1OC(=O)C2(/C=C/c3ccc4ccc(nc4c3)[C@@H](C)NC(=O)[C@@H]3CCCN(N3)C(=O)[C@H](C)NC1=O)CCOCC2 | 2.4 | – | – | 3.2 ×10⁻⁶ cm/s | – | 19 ×10⁻⁶ cm/s | – |
| CO[C@@H]1/C=C/c2cc3cc(ccc3cn2)[C@@H](C)OC(=O)[C@@H]2CCCN(N2)C(=O)[C@H](C)NC(=O)[C@H](C(C)C)NC(=O)[C@@H]1C | 2.1 | 0.0833 h | 17.4 h | 4.4 ×10⁻⁶ cm/s | 12.5 h | 37 ×10⁻⁶ cm/s | – |
| CO[C@H]1CC[C@@]2(/C=C/c3ccc4ccc(nc4c3)[C@@H](C)NC(=O)[C@@H]3CCCN(N3)C(=O)[C@H](C)NC(=O)[C@H](C(C)C)OC2=O)CC1 | 3.1 | – | – | 13 ×10⁻⁶ cm/s | – | 33 ×10⁻⁶ cm/s | – |
| CC(C)[C@@H]1OC(=O)C2(/C=C/c3ccc4ccc(nc4c3)[C@@H](C)NC(=O)[C@@H]3CCCN(N3)C(=O)[C@H](C)NC1=O)CCC(O)CC2 (stereo in doubt; 47) | 1.9 | – | – | 0.61 ×10⁻⁶ cm/s | – | 9.2 ×10⁻⁶ cm/s | – |
